Laboratory results taken from ChEMBL document CHEMBL1131365, “Identification and SAR for a selective, nonpeptidyl thrombin inhibitor” (Bioorg Med Chem Lett, 1998).

How the values were obtained:
[1] = target: Prothrombin (Homo sapiens, UniProt P00734); test: Compound was evaluated for its inhibitory activity against human thrombin
[2] = target: Serine protease 1 (Homo sapiens, UniProt P07477); test: Compound was evaluated for its inhibitory activity against trypsin
Chain of Serine protease 1 (P07477 whole entry): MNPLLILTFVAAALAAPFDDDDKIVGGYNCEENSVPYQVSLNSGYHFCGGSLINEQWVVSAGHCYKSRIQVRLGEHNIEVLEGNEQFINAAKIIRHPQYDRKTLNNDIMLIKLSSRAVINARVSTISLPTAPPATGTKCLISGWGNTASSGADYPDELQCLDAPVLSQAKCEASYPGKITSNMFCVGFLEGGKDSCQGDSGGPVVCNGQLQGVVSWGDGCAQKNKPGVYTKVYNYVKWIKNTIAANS

With `c1ccc(COc2ccc(C[n+]3ccccc3)cc2)cc1` the Ki [1] was over 500 µM.

Molecule `Nc1ccc(Cc2ccc(OCc3ccccc3)cc2)cc1` has a Ki [2] of over 10 µM and a Ki [1] of over 10 µM.

For `NC1CCN(Cc2ccc(OCc3ccccc3)cc2)CC1`, the Ki [1] was 581 µM.

`Nc1cc[n+](Cc2ccc(OC(CCc3ccccc3)c3ccccc3)cc2)cc1` (stereo unspecified) showed a Ki [2] of 16 µM and a Ki [1] of 0.16 µM.

`c1ccc(C(Oc2ccc(CNc3ccncc3)cc2)c2ccccc2)cc1` showed a Ki [2] of 77 µM and a Ki [1] of 1.3 µM.

In the case of `Nc1cc[n+](Cc2ccc(OCc3ccccc3)cc2)cc1`, the Ki [2] is reported as 77 µM and the Ki [1] is reported as 0.7 µM.

In the case of `c1ccc(COc2ccc(CNc3ccncc3)cc2)cc1`, the Ki [2] is reported as 233 µM and the Ki [1] is reported as 4.7 µM.

Molecule `Nc1cc[n+](Cc2ccc(OC(c3ccccc3)c3ccccc3)cc2)cc1` has a Ki [2] of 517 µM and a Ki [1] of 0.058 µM.

Work on `c1ccc(COc2ccc(CCNc3ccncc3)cc2)cc1` yielded a Ki [2] of 568 µM and a Ki [1] of 7.9 µM.
